Converted amounts (≈) assume the structure as drawn.
Columns and labels:
[1] = tested on: Bacillus cereus ATCC 10702 NCTC 8035; test: Antimicrobial activity, serial dilution technique in Mueller–Hinton Broth 2; format: cell-based; details: average of three ± SD, - means non-active; for MIC / MBC: Bacillus cereus, Bc; for MIC: read-out: Minimum Inhibitory Concentration (MIC), Bc; for MBC: read-out: Minimum Bactericidal and Fungicidal Concentration (MBC, MFC), Bc
Procedure: (§1) The synthesized compounds were tested for antimicrobial activity against a number of Gram-positive bacteria, Staphylococcus aureus (Sa), Bacillus cereus (Bc) and Enterococcus faecalis (Ef), and Gram-negative bacteria, Escherichia coli (Ec) and Pseudomonas aeruginosa (Pa), including the methicillin-resistant strains S. aureus MRSA-1 (resistant to fluoroquinolones and beta-lactams) and MRSA-2 (resistant to beta-lactams). The methicillin-resistant strains S. aureus were transferred by the Republican Clinical Hospital of the Republic of Tatarstan (Kazan). The fungicidal activity against Candida albicans (Ca) and Trichophyton mentagrophytes var. gypseum (Tm) was studied. These pathogens were chosen because they are the most widespread in the food industry and the healthcare system.
(§2) The antimicrobial activity of the QPSs was determined using the serial dilution technique in Mueller–Hinton Broth 2. The cultures used for testing included the Gram-positive bacteria Staphylococcus aureus ATCC 6538P FDA 209P, Enterococcus faecalis ATCC 2921 and Bacillus cereus ATCC 10702 NCTC 8035, the Gram-negative bacteria Escherichia coli ATCC 25922 and Pseudomonas aeruginosa ATCC 9027, and the fungi Trichophyton mentagrophytes var. gypseum 1773 and Candida albicans ATCC 10231; methicillin-resistant strains of S. aureus MRSA were obtained from hospital patients with chronic tonsillitis (MRSA-1) and sinusitis (MRSA-2) in the Republican Clinical Hospital (Kazan, Russia). […] The bacterial load was 3.0 × 10^5 cfu/mL. The results were recorded every 24 h for 5 days. The cultures were incubated at 37 °C. The experiment was repeated three times. […] The minimum inhibitory concentration (MIC) was defined as the minimum concentration of a compound that inhibits the growth of the corresponding test micro-organism. The growth of bacteria as well as the absence of growth due to the bacteriostatic action of a compound was recorded.

[2] = tested on: Enterococcus faecalis ATCC 2921; test: as above; format: cell-based; details: average of three ± SD, - means non-active; for MIC / MBC: Enterococcus faecalis, ATCC2921, Ef; for MIC: read-out: Minimum Inhibitory Concentration (MIC), Ef; for MBC: read-out: Minimum Bactericidal and Fungicidal Concentration (MBC, MFC), Ef
Procedure: as §1, §2

[3] = tested on: Pseudomonas aeruginosa ATCC 9027; test: as above; format: cell-based; details: average of three ± SD, - means non-active
Procedure: as §1, §2

[4] = tested on: Staphylococcus aureus ATCC 6538P FDA 209P; test: as above; format: cell-based; details: average of three ± SD, - means non-active; for MIC: read-out: Minimum Inhibitory Concentration (MIC), Sa
Procedure: as §1, §2

[5] = tested on: methicillin-resistant S. aureus MRSA-1; test: as above; format: cell-based, Staphylococcus aureus; details: - means non-active; for MIC / Minimum Inhibitory Concentration (MIC), MRSA-1: MRSA-1 (resistant to fluoroquinolones and beta-lactams); for MIC: read-out: Minimum Inhibitory Concentration (MIC), MRSA-1
Procedure: as §1, §2

[6] = tested on: methicillin-resistant S. aureus MRSA-2; test: as above; format: cell-based, Staphylococcus aureus; details: - means non-active; for MIC / Minimum Inhibitory Concentration (MIC), MRSA-2: MRSA-2 (resistant to beta-lactams); for MIC: read-out: Minimum Inhibitory Concentration (MIC), MRSA-2
Procedure: as §1, §2

[7] = tested on: Escherichia coli ATCC 25922; test: as above; format: cell-based; details: average of three ± SD, - means non-active
Procedure: as §1, §2

[8] = tested on: Candida albicans ATCC 10231; test: Fungicidal activity, serial dilution technique; format: cell-based; details: average of three ± SD, - means non-active; for MBC / MIC / MFC: Candida albicans, ATCC10231, Ca; for MBC / MFC: read-out: Minimum Bactericidal and Fungicidal Concentration (MBC, MFC), Ca; for MIC: read-out: Minimum Inhibitory Concentration (MIC), Ca
Procedure: as §1
(§3) The antimicrobial activity of the QPSs was determined using the serial dilution technique in Mueller–Hinton Broth 2. The cultures used for testing included the Gram-positive bacteria Staphylococcus aureus ATCC 6538P FDA 209P, Enterococcus faecalis ATCC 2921 and Bacillus cereus ATCC 10702 NCTC 8035, the Gram-negative bacteria Escherichia coli ATCC 25922 and Pseudomonas aeruginosa ATCC 9027, and the fungi Trichophyton mentagrophytes var. gypseum 1773 and Candida albicans ATCC 10231; methicillin-resistant strains of S. aureus MRSA were obtained from hospital patients with chronic tonsillitis (MRSA-1) and sinusitis (MRSA-2) in the Republican Clinical Hospital (Kazan, Russia). Ciprofloxacin and ketoconazole were purchased from Sigma-Aldrich. The bacterial load was 3.0 × 10^5 cfu/mL. The results were recorded every 24 h for 5 days. The cultures were incubated at 37 °C. The experiment was repeated three times. […] The minimum inhibitory concentration (MIC) was defined as the minimum concentration of a compound that inhibits the growth of the corresponding test micro-organism. The growth of bacteria as well as the absence of growth due to the bacteriostatic action of a compound was recorded.

[9] = tested on: Trichophyton mentagrophytes var. gypseum 1773; test: Fungicidal activity, serial dilution technique; format: cell-based; details: for Minimum Bactericidal and Fungicidal Concentration (MBC, MFC), Tm / Minimum Inhibitory Concentration (MIC), Tm: average of three ± SD, - means non-active
Procedure: as §1, §3

[10] = tested on: Escherichia coli ATCC 25922; test: Antimicrobial activity, serial dilution technique in Mueller–Hinton Broth 2; format: cell-based; details: average of three ± SD, - means non-active; for MBC: Escherichia coli, ATCC25922, Ec, read-out: Minimum Bactericidal and Fungicidal Concentration (MBC, MFC), Ec
[11] = Trichophyton mentagrophytes, read-out: Minimum Bactericidal and Fungicidal Concentration (MBC, MFC), Tm

SMILES	MIC [1] [µg/mL]	MIC [2] [µg/mL]	MIC ([4]; Staphylococcus aureus, Sa) [µg/mL]	MIC ([5]; Staphylococcus aureus, MRSA) [µg/mL]	MIC ([6]; Staphylococcus aureus, MRSA) [µg/mL]	MBC [1] [µg/mL]	MBC [2] [µg/mL]	Minimum Bactericidal and Fungicidal Concentration (MBC, MFC), Sa [4] [µg/mL]	Minimum Inhibitory Concentration (MIC), MRSA-1 [5] [µg/mL]	Minimum Bactericidal and Fungicidal Concentration (MBC, MFC), MRSA-1 ([5]; MRSA-1) [µg/mL]	Minimum Bactericidal and Fungicidal Concentration (MBC, MFC), MRSA-2 ([6]; MRSA-2) [µg/mL]	MBC [8] [µg/mL]	MIC [8] [µg/mL]	Minimum Bactericidal and Fungicidal Concentration (MBC, MFC), Tm [9] [µg/mL]	Minimum Inhibitory Concentration (MIC), Tm [9] [µg/mL]	MBC [10] [µg/mL]	Minimum Bactericidal and Fungicidal Concentration (MBC, MFC), Bc [1] [µg/mL]	Minimum Inhibitory Concentration (MIC), Bc [1] [µg/mL]	Minimum Inhibitory Concentration (MIC), Ec [7] [µg/mL]	Minimum Inhibitory Concentration (MIC), Ca ([8]; Ca) [µg/mL]	other results
O=C(O)c1cn(C2CC2)c2cc(N3CCNCC3)c(F)cc2c1=O [Ciprofloxacin, reference compound]	0.5 ± 0.04 (≈ 1.51 µM)	3.9 ± 0.3 (≈ 11.8 µM)	0.5 ± 0.03 (≈ 1.51 µM)	125 ± 11 (≈ 377 µM)	0.9 ± 0.07 (≈ 2.72 µM)																MIC ([3]; Pseudomonas aeruginosa, ATCC9027, Pa, read-out: Minimum Inhibitory Concentration (MIC), Pa): 0.5 ± 0.03 µg/mL (≈ 1.51 µM)
CCCCCCCCCCC[P+](C(C)(C)C)(C(C)(C)C)C(C)(C)C [Compound 11a]	1.9 ± 0.1	7.8 ± 0.5	0.9 ± 0.07		0.9 ± 0.08	125 ± 10	7.8 ± 0.6	1.9 ± 0.1	1.9 ± 0.1	1.9 ± 0.1	7.8 ± 0.6	62.5 ± 5.7	62.5 ± 5.5	31.3 ± 2.5	31.3 ± 2.5	31.3 ± 2.3					MIC ([7]; Escherichia coli, ATCC25922, Ec, read-out: Minimum Inhibitory Concentration (MIC), Ec): 31.3 ± 2.6 µg/mL
CCCCCCCCCCC[P+](C(C)(C)C)(C(C)(C)C)C(C)(C)C [Compound 11b]								3.9 ± 0.2	0.3 ± 0.02	0.5 ± 0.03	0.9 ± 0.07			125 ± 9	125 ± 9		125 ± 10	1.9 ± 0.1	62.5 ± 5.3	31.3 ± 2.4	Minimum Bactericidal and Fungicidal Concentration (MBC, MFC), Ef [2]: 15.6 ± 1.2 µg/mL; Minimum Inhibitory Concentration (MIC), Ef [2]: 7.8 ± 0.6 µg/mL; Minimum Inhibitory Concentration (MIC), Sa [4]: 0.9 ± 0.07 µg/mL; Minimum Inhibitory Concentration (MIC), MRSA-2 [6]: 0.5 ± 0.04 µg/mL; Minimum Bactericidal and Fungicidal Concentration (MBC, MFC), Ca ([8]; Ca): 31.3 ± 2.1 µg/mL; Minimum Bactericidal and Fungicidal Concentration (MBC, MFC), Ec ([10]; Ec): 62.5 ± 5.4 µg/mL
CCCCCCCCCCCCCCCC[P+](C(C)(C)C)(C(C)(C)C)C(C)(C)C [Compound 16a]	1.9 ± 0.1	0.5 ± 0.03	0.5 ± 0.04	1.9 ± 0.1	0.5 ± 0.03	31.3 ± 2.2	0.5 ± 0.03					3.9 ± 0.3				1.9 ± 0.1			0.9 ± 0.07	1.9 ± 0.1	Minimum Inhibitory Concentration (MIC), Pa ([3]; Pa): 31.3 ± 2.7 µg/mL; MBC ([3]; Pseudomonas aeruginosa, ATCC9027, Pa, read-out: Minimum Bactericidal and Fungicidal Concentration (MBC, MFC), Pa): 125 ± 9 µg/mL; MBC ([4]; Staphylococcus aureus, Sa, read-out: Minimum Bactericidal and Fungicidal Concentration (MBC, MFC), Sa): 0.5 ± 0.03 µg/mL; MBC ([5]; Staphylococcus aureus, MRSA, MRSA-1, read-out: Minimum Bactericidal and Fungicidal Concentration (MBC, MFC), MRSA-1): 7.8 ± 0.6 µg/mL; MBC ([6]; Staphylococcus aureus, MRSA, MRSA-2, read-out: Minimum Bactericidal and Fungicidal Concentration (MBC, MFC), MRSA-2): 7.8 ± 0.7 µg/mL
CCCCCCCCCCCCCCCCC[P+](C(C)(C)C)(C(C)(C)C)C(C)(C)C [Compound 17b]								0.5 ± 0.04	1.9 ± 0.1	1.9 ± 0.1	1.9 ± 0.1			125 ± 11	125 ± 10		15.6 ± 1.3	1.9 ± 0.1	15.6 ± 1.2	1.9 ± 0.1	Minimum Bactericidal and Fungicidal Concentration (MBC, MFC), Ef [2]: 3.9 ± 0.2 µg/mL; Minimum Inhibitory Concentration (MIC), Ef [2]: 0.5 ± 0.03 µg/mL; Minimum Bactericidal and Fungicidal Concentration (MBC, MFC), Pa ([3]; Pa): 15.6 ± 1.3 µg/mL; Minimum Inhibitory Concentration (MIC), Pa ([3]; Pa): 7.8 ± 0.6 µg/mL; Minimum Inhibitory Concentration (MIC), Sa [4]: 0.5 ± 0.04 µg/mL; Minimum Inhibitory Concentration (MIC), MRSA-2 [6]: 1.9 ± 0.1 µg/mL; MFC [8]: 7.8 ± 0.7 µg/mL
CC(=O)N1CCN(c2ccc(OCC3COC(Cn4ccnc4)(c4ccc(Cl)cc4Cl)O3)cc2)CC1 (stereo not shown) [Ketoconazole, reference compound]												3.9 ± 0.3 (≈ 7.34 µM)	3.9 ± 0.3 (≈ 7.34 µM)		3.9 ± 0.2					3.9 ± 0.3	MFC [8]: 3.9 ± 0.3 µg/mL (≈ 7.34 µM); MBC [9, 11]: 3.9 ± 0.2 µg/mL (≈ 7.34 µM); MFC [9, 11]: 3.9 ± 0.2 µg/mL (≈ 7.34 µM); MIC ([9]; Trichophyton mentagrophytes, read-out: Minimum Inhibitory Concentration (MIC), Tm): 3.9 ± 0.2 µg/mL (≈ 7.34 µM)

Reference: publication PMC8744835, “Sterically Hindered Quaternary Phosphonium Salts (QPSs): Antimicrobial Activity and Hemolytic and Cytotoxic Properties” (International Journal of Molecular Sciences, 2021)
